Data as given in patent publication US8008456B2, “Compositions containing, methods involving, and uses of non-natural amino acids and polypeptides” (Ambrx, Inc., priority 2004, dated 2011).
Like-named read-outs stand apart in the source and are kept apart here. Blank lines part the entries; values can stand above or below the compound they belong to.

What was measured:
[1] = Intracellular concentration of non-natural amino acids (cellular uptake); format: in vitro ADME
Source text: Non-natural amino acid uptake by a eukaryotic cell is one issue that is typically considered when designing and selecting non-natural amino acids, including but not limited to, for incorporation into a protein. […] Natural amino acids are taken up into the eukaryotic cell via a collection of protein-based transport systems. A rapid screen can be done which assesses which non-natural amino acids, if any, are taken up by cells (examples 15 & 16 herein illustrate non-limiting examples of tests which can be done on non-natural amino acids). See, e.g., the toxicity assays in, e.g., the U.S. Patent Publication No. 2004/198637 entitled “Protein Arrays,” which is herein incorporated by reference in its entirety, and Liu, D. R. & Schultz, P. G. (1999) Progress toward the evolution of an organism with an expanded genetic code. PNAS United States 96:4780-4785. Although uptake is easily analyzed with various assays, an alternative to designing non-natural amino acids that are amenable to cellular uptake pathways is to provide biosynthetic pathways to create amino acids in vivo.
(§1) This example provides results of four tests that were conducted on certain illustrative non-natural amino acids as an aid for predicting their properties for incorporation into non-natural amino acid polypeptides.

[2] = Pharmacokinetic studies, single s.c. dose in rats, plasma growth hormone ELISA; format: in vivo; conditions: single-dose 1 mg/kg bolus s.c., normal male Sprague-Dawley rats; average (+/- standard deviation)
Protocol: Pharmacokinetic properties of PEG-modified growth hormone compounds were compared to each other and to nonPEGylated growth hormone in male Sprague-Dawley rats (261-425 g) obtained from Charles River Laboratories. Catheters were surgically installed into the carotid artery for blood collection. Following successful catheter installation, animals were assigned to treatment groups (three to six per group) prior to dosing. Animals were dosed subcutaneously with 1 mg/kg of compound in a dose volume of 0.41-0.55 ml/kg. Blood samples were collected at various time points via the indwelling catheter and into EDTA-coated microfuge tubes. Plasma was collected after centrifugation, and stored at −80° C. until analysis. Compound concentrations were measured using antibody sandwich growth hormone ELISA kits from either BioSource International (Camarillo, Calif.) or Diagnostic Systems Laboratories (Webster, Tex.). Concentrations were calculated using standards corresponding to the analog that was dosed. Pharmacokinetic parameters were estimated using the modeling program WinNonlin (Pharsight, version 4.1). Noncompartmental analysis with linear-up/log-down trapezoidal integration was used, and concentration data was uniformly weighted.
Plasma concentrations were obtained at regular intervals following a single subcutaneous dose in rats. […] Plasma samples were taken over the regular time intervals and assayed for injected compound as described. […] Concentration vs time curves were evaluated by noncompartmental analysis (Pharsight, version 4.1). Values shown are averages (+/−standard deviation). Cmax: maximum concentration; terminal t1/2: terminal half-life; AUC0->inf: area under the concentration-time curve extrapolated to infinity; MRT: mean residence time; Cl/f: apparent total, plasma clearance; Vz/f: apparent volume of distribution during terminal phase.

[3] = pH stability tests; format: physicochemical
Protocol: This example provides the results of pH stability tests that were conducted on certain illustrative non-natural amino acids as an aid for predicting their properties for incorporation into non-natural amino acid polypeptides.

[4] = system: aminoacyl-tRNA synthetase (RS); experiment: RS test
Protocol: as §1

Compound: CC(C)=NOCOc1ccc(C[C@H](N)C(=O)O)cc1
- Intracellular Concentration [1]: 60 µM

Compound: 30KPEG-pAF131(his)hGH: "His-tagged hGH polypeptide comprising non-natural amino acid p-acetyl-phenylalanine covalently linked to 30 kDa PEG at each of six different positions"
- AUC0->inf [2]: 6,978 (±2,573) ng × hr/ml
- Cl/f [2]: 161 (±61) ml/hr/kg
- Cmax [2]: 497 (±187) ng/ml
- MRT [2]: 14.28 (±0.92) h
- Terminal t1/2 [2]: 4.41 (±0.27) h

Compound: CC(=O)CNC(=O)c1ccc(C[C@H](N)C(=O)O)cc1
- Intracellular Concentration [1]: 628 µM
- Intracellular Concentration ([1]; remark in words): little reduced

Compound: CC(=O)COc1ccc(C[C@H](N)C(=O)O)cc1
- Intracellular Concentration [1]: 1000 to 1800 µM

Compound: CC(=O)C(=O)Nc1ccc(C[C@H](N)C(=O)O)cc1
- Intracellular Concentration [1]: 376 µM

The next lines start with the values.

- Intracellular Concentration ([1]; remark in words): Reduced [M + 2]
Compound: CC(=O)C(=O)c1ccc(C[C@H](N)C(=O)O)cc1

- pH stability ([3]; pH 4.0, 1 hour): 2%
- pH stability ([3]; pH 4.0, 1 day): 5%
- pH stability ([3]; pH 4.0, 2 days): 5%
- pH stability ([3]; pH 4.0, 3 days): 5%
- pH stability ([3]; pH 4.0, 4 days): 8%
- pH stability ([3]; pH 4.0, 5 days): 8%
- pH stability ([3]; pH 4.0, 6 days): 8%
- pH stability ([3]; pH 4.0, 7 days): 9%
- pH stability ([3]; pH 4.0, 10 days): 10%
- pH stability ([3]; pH 5.0, 1 hour): <1%
- pH stability ([3]; pH 5.0, 1 day): 5%
- pH stability ([3]; pH 5.0, 2 days): 5%
- pH stability ([3]; pH 5.0, 3 days): 5%
- pH stability ([3]; pH 5.0, 4 days): 5%
- pH stability ([3]; pH 5.0, 5 days): 5%
- pH stability ([3]; pH 5.0, 6 days): 5%
- pH stability ([3]; pH 5.0, 7 days): 5%
- pH stability ([3]; pH 5.0, 10 days): 5%
- pH stability ([3]; pH 6.5, 1 hour): <1%
- pH stability ([3]; pH 6.5, 1 day): <1%
- pH stability ([3]; pH 6.5, 2 days): <1%
- pH stability ([3]; pH 6.5, 3 days): <1%
- pH stability ([3]; pH 6.5, 4 days): <1%
- pH stability ([3]; pH 6.5, 5 days): <1%
- pH stability ([3]; pH 6.5, 6 days): <1%
- pH stability ([3]; pH 6.5, 7 days): <1%
- pH stability ([3]; pH 6.5, 10 days): <1%
- pH stability ([3]; pH 7.4, 1 hour): <1%
- pH stability ([3]; pH 7.4, 1 day): 15%
- pH stability ([3]; pH 7.4, 2 days): 15%
- pH stability ([3]; pH 7.4, 3 days): 15%
- pH stability ([3]; pH 7.4, 4 days): 15%
- pH stability ([3]; pH 7.4, 5 days): 15%
- pH stability ([3]; pH 7.4, 6 days): 15%
- pH stability ([3]; pH 7.4, 7 days): 15%
- pH stability ([3]; pH 7.4, 10 days): 15%
- pH stability ([3]; pH 8.0, 1 hour): <1%
- pH stability ([3]; pH 8.0, 1 day): 35%
- pH stability ([3]; pH 8.0, 2 days): 38%
- pH stability ([3]; pH 8.0, 3 days): 40%
- pH stability ([3]; pH 8.0, 4 days): 45%
- pH stability ([3]; pH 8.0, 5 days): 45%
- pH stability ([3]; pH 8.0, 6 days): 45%
- pH stability ([3]; pH 8.0, 7 days): 45%
- pH stability ([3]; pH 8.0, 10 days): 45%
Compound: COCCOC(=O)NCCO/N=C(\C)COc1ccccc1

- RS test [4]: ✓
- Intracellular Concentration [1]: 600 µM
Compound: CC(=O)c1ccc(C[C@H](N)C(=O)O)cc1
